pIC50: −log10 of the molar value.
Target: human Mnk2a (Homo sapiens (Human), UniProt Q9HBH9)
Experiment: Mnk2a in vitro kinase assay (indirect competitive fluorescence polarization)
Type: biochemical
Conditions: pre-activated GST-Mnk2a 2.5 nM, 20 μM ATP, 30 μM substrate peptide; read-out: MNK2 IC50
In short: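 GST-tagged human Mnk2a expressed in E. coli and glutathione-purified, then activated at 2.5 μM with 150 nM pre-activated NHis-ERK2 and 50 μM ATP in HEPES/KOH pH 7.4, MgCl2, DTT, Brij 78 for 45 min at 30 °C. Phospho-peptide product read by indirect competitive fluorescence polarization against fluorophore-labelled phospho-peptide bound to phospho-specific antibody.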

Chain of human Mnk2a (Q9HBH9 whole entry): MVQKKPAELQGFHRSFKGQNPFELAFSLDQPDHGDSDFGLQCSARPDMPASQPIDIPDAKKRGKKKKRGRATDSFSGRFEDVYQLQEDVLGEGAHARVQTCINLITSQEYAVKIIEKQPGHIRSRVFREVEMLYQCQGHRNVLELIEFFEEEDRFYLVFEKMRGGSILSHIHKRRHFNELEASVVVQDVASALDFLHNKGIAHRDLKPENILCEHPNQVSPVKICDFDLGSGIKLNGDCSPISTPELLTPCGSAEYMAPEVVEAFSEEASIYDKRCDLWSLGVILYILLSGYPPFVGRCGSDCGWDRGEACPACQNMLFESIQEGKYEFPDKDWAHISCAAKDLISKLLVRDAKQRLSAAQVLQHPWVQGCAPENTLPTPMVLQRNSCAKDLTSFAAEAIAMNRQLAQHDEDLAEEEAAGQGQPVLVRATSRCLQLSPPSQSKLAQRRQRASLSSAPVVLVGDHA

Row | SMILES | pIC50
1 | CNC(=O)CNC(=O)c1sc2ncnc(Nc3cccnc3OC(C)C)c2c1C [Compound 36-7, 4-(2-Isopropoxypyridin-3ylamino)-5-methyl-N-(2-(methylamino)-2-oxoethyl)thieno[2,3-d]pyrimidine-6-carboxamide] | 7.57
2 | Cc1c(C(=O)NCc2cnco2)sc2ncnc(Nc3cccnc3OC(C)C)c12 [Compound 36-8, 4-(2-Isopropoxypyridin-3ylamino)-5-methyl-N-(oxazol-5-ylmethyl)thieno[2,3-d]pyrimidine-6-carboxamide] | 7.72
3 | Cc1c(C(=O)NCCN2CCCCC2)sc2ncnc(Nc3cccnc3OC(C)C)c12 [Compound 36-9, 4-(2-Isopropoxypyridin-3ylamino)-5-methyl-N-(2-(piperidin-1-yl)ethyl)thieno[2,3-d]pyrimidine-6-carboxamide] | 7.20
4 | Cc1c(C(=O)NC2CCN(C)CC2)sc2ncnc(Nc3cccnc3OC(C)C)c12 [Compound 36-10, 4-(2-Isopropoxypyridin-3ylamino)-5-methyl-N-(1-methylpiperidin-4-yl)thieno[2,3-d]pyrimidine-6-carboxamide] | 7.49
5 | Cc1c(C(=O)NCCCO)sc2ncnc(Nc3cccnc3OC(C)C)c12 [Compound 36-11, N-(3-Hydroxypropyl)-4-(2-isopropoxypyridin-3ylamino)-5-methylthieno[2,3-d]pyrimidine-6-carboxamide] | 7.35
6 | Cc1c(C(=O)NCCO)sc2ncnc(Nc3cccnc3OC(C)C)c12 [Compound 36-12, N-(2-Hydroxyethyl)-4-(2-isopropoxypyridin-3ylamino)-5-methylthieno[2,3-d]pyrimidine-6-carboxamide] | 7.51
7 | Cc1c(C(=O)NCC(C)O)sc2ncnc(Nc3cccnc3OC(C)C)c12 (stereo not shown) [Compound 36-13, N-(2-Hydroxypropyl)-4-(2-isopropoxypyridin-3ylamino)-5-methylthieno[2,3-d]pyrimidine-6-carboxamide] | 7.27
8 | Cc1c(C(=O)NCC2COCCN2)sc2ncnc(Nc3cccnc3OC(C)C)c12 (stereo not shown) [Compound 36-14, 4-(2-Isopropoxypyridin-3ylamino)-5-methyl-N-(morpholin-3-ylmethyl) thieno[2,3-d]pyrimidine-6-carboxamide] | 7.19
9 | Cc1c(C(=O)NCc2cn(C)cn2)sc2ncnc(Nc3cccnc3OC(C)C)c12 [Compound 36-15, 4-(2-Isopropoxypyridin-3ylamino)-5-methyl-N-((1-methyl-1H-imidazol-4-yl)methyl) thieno[2,3-d]pyrimidine-6-carboxamide] | 7.62
10 | Cc1c(C(=O)NCC#CCN(C)C)sc2ncnc(Nc3cccnc3OC(C)C)c12 [Compound 36-16] | 7.66
11 | CCNC(=O)C(C)Oc1cc(F)ccc1Nc1ncnc2sc(C(=O)O)c(C)c12 (stereo not shown) [Compound 39, 4-[2-(1-Ethylcarbamoyl-ethoxy)-4-fluoro-phenylamino]-5-methyl-thieno[2,3-d]pyrimidine-6-carboxylic acid] | 7.72
12 | CCNC(=O)C(C)Oc1cc(F)ccc1Nc1ncnc2sc(C(=O)NCCCN(C)C)c(C)c12 (stereo not shown) [Compound 40, 4-[2-(1-Ethylcarbamoyl-ethoxy)-4-fluoro-phenylamino]-5-methyl-thieno[2,3-d]pyrimidine-6-carboxylic acid (3-dimethylamino-propyl)-amide] | 7.70
13 | CCNC(=O)C(C)Oc1cc(F)ccc1Nc1ncnc2sc(C(=O)NCCO)c(C)c12 (stereo not shown) [Compound 41] | 7.51
14 | Cc1c(C(=O)NCCO)sc2ncnc(Nc3cccnc3OC(C)CCN)c12 (stereo not shown) [Compound 42, 4-[2-(3-Amino-1-methyl-propoxy)-3pyridin-3-ylamino]-5-methyl-thieno[2,3-d]pyrimidine-6-carboxylic acid (2-hydroxy-ethyl)-amide] | 7.15
15 | Cc1c(C(=O)NCCO)sc2ncnc(Nc3cccnc3OC(C)CCNS(C)(=O)=O)c12 (stereo not shown) [Compound 43, 4-[2-(3-Methanesulfonylamino-1-methyl-propoxy)-pyridin-3-ylamino]-5-methyl-thieno[2,3-d]pyrimidine-6-carboxylic acid (2-hydroxy-ethyl)-amide] | 7.21
16 | Cc1c(C(=O)O)sc2ncnc(Nc3cccnc3OC(C)CCNS(C)(=O)=O)c12 (stereo not shown) [Compound 44, 4-[2-(3-Methanesulfonylamino-1-methyl-propoxy)-pyridin-3-ylamino]-5-methyl-thieno[2,3-d]pyrimidine-6-carboxylic acid] | 7.62
17 | Cc1c(C(N)=O)sc2ncnc(Nc3cccnc3OC(C)CCNS(C)(=O)=O)c12 (stereo not shown) [Compound 45, 4-[2-(3-Methanesulfonylamino-1-methyl-propoxy)-pyridin-3-ylamino]-5-methyl-thieno[2,3-d]pyrimidine-6-carboxylic acid amide] | 7.70

Row | SMILES | pIC50
18 | Cc1c(C(=O)NCCCN(C)C)sc2ncnc(Nc3cccnc3OC(C)CCNS(C)(=O)=O)c12 (stereo not shown) [Compound 46, 4-[2-(3-Methanesulfonylamino-1-methyl-propoxy)-pyridin-3-ylamino]-5-methyl-thieno[2,3-d]pyrimidine-6-carboxylic acid (3-dimethylamino-propyl)-amide] | 7.08
19 | COC(=O)c1sc2ncnc(Nc3ccc(C#N)cc3OC(CF)CF)c2c1C [Compound 47, Methyl 4-[4-cyano-2-(2-fluoro-1-fluoromethyl-ethoxy)phenylamino]-5-methyl-thieno[2,3-d]pyrimidine-6-carboxylate] | 6.90
20 | Cc1c(C(=O)NCCCN2CCCC2)sc2ncnc(Nc3ccc(C#N)cc3OC(CF)CF)c12 [Compound 48, 4-[4-Cyano-2-(2-fluoro-1-fluoromethyl-ethoxy)-phenylamino]-5-methyl-thieno[2,3-d]pyrimidine-6-carboxylic acid (3-pyrrolidin-1-yl-propyl)-amide] | 7.92
21 | Cc1c(C(=O)NCCCN(C)C)sc2ncnc(Nc3ccc(C#N)cc3OC(CF)CF)c12 [Compound 49, 4-(4-Cyano-2-(2-fluoro-1-fluoromethyl-ethoxy)-phenylamino]-5-methyl-thieno[2,3-d]pyrimidine-6-carboxylic acid (3-dimethylamino-propyl)-amide] | 8.10
22 | Cc1c(C(=O)NC2CCN(C)CC2)sc2ncnc(Nc3ccc(C#N)cc3OC(CF)CF)c12 [Compound 50, 4-(4-Cyano-2-(2-fluoro-1-fluoromethyl-ethoxy)-phenylamino]-5-methyl-thieno[2,3-d]pyrimidine-6-carboxylic acid (1-methyl-piperidin-4-yl)-amide] | 7.89
23 | Cc1c(C(=O)NCCO)sc2ncnc(Nc3ccc(C#N)cc3OC(CF)CF)c12 [Compound 51, 4-(4-Cyano-2-(2-fluoro-1-fluoromethyl-ethoxy)-phenylamino]-5-methyl-thieno[2,3-d]pyrimidine-6-carboxylic acid (2-hydroxy-ethyl)-amide] | 8.00
24 | Cc1c(C(=O)NCC#CCN(C)C)sc2ncnc(Nc3ccc(C#N)cc3OC(CF)CF)c12 [Compound 52, 4-(4-Cyano-2-(2-fluoro-1-fluoromethyl-ethoxy)-phenylamino]-5-methyl-thieno[2,3-d]pyrimidine-6-carboxylic acid (4-dimethylamino-but-2-ynyl)-amide] | 7.60
25 | Cc1c(C(=O)NCC#N)sc2ncnc(Nc3ccc(C#N)cc3OC(CF)CF)c12 [Compound 53, 4-(4-Cyano-2-(2-fluoro-1-fluoromethyl-ethoxy)-phenylamino]-5-methyl-thieno[2,3-d]pyrimidine-6-carboxylic acid cyanomethyl-amide] | 8.15
26 | Cc1c(C(N)=O)sc2ncnc(Nc3ccc(F)cc3OC(C)C#N)c12 (stereo not shown) [Compound 54] | 7.96
27 | COC(=O)c1sc2ncnc(Nc3ccc(F)cc3OC(C)C(=O)O)c2c1C (stereo not shown) [Compound 55, 4-[2-(1-Carboxy-ethoxy)-4-fluoro-phenylamino]-5-methyl-thieno[2,3-d]pyrimidine-6-carboxylic acid methyl ester] | 5.27
28 | COC(=O)c1sc2ncnc(Nc3ccc(F)cc3OC(C)C(=O)NCCCN)c2c1C (stereo not shown) [Compound 56, 4-{2-[1-(3-Amino-propylcarbamoyl)-ethoxy]-4-fluoro-phenylamino}-5-methyl-thieno[2,3-d]pyrimidine-6-carboxylic acid methyl ester] | 6.50
29 | Cc1c(C(=O)NCCO)sc2ncnc(Nc3ccc(F)cc3OC(C)C(=O)NCCCN)c12 (stereo not shown) [Compound 57, 4-{2-[1-(3-Amino-propylcarbamoyl)-ethoxy]-4-fluoro-phenylamino}-5-methyl-thieno[2,3-d]pyrimidine-6-carboxylic acid (2-hydroxy-ethyl)-amide] | 6.96
30 | COC(=O)c1sc2ncnc(Nc3ccc(F)cc3OC(C)C(=O)NCCN)c2c1C (stereo not shown) [Compound 58, 4-{2-[1-(2-Amino-ethylcarbamoyl)-ethoxyl]-4-fluoro-phenylamino}-5-methyl-thieno[2,3-d]pyrimidine-6-carboxylic acid methyl ester] | 6.92
31 | Cc1c(C(=O)NCCO)sc2ncnc(Nc3ccc(F)cc3OC(C)C(=O)NCCN)c12 (stereo not shown) [Compound 59, 4-{2-[1-(2-Amino-ethylcarbamoyl)-ethoxy]-4-fluoro-phenylamino}-5-methyl-thieno[2,3-d]pyrimidine-6-carboxylic acid (2-hydroxy-ethyl)amide] | 7.54
32 | Cc1c(C(N)=O)sc2ncnc(Nc3ccc(F)cc3OC(C)C(C)(C)O)c12 (stereo not shown) [Compound 60, 4-[4-Fluoro-2-(2-hydroxy-1,2-dimethyl-propoxy)-phenylamino]-5-methyl-thieno[2,3-d]pyrimidine-6-carboxylic acid amide] | 7.43
33 | CCNC(=O)C(C)Oc1cc(F)ccc1Nc1ncnc2sc(C(=O)OC)c(C)c12 (stereo not shown) [Compound 61, 4-[2-(1-Ethylcarbamoyl-ethoxy)-4-fluoro-phenylamino}-5-methylthieno[2,3d]pyrimidine-6-carboxylic acid methyl ester] | 7.11
34 | COC(=O)c1sc2ncnc(Nc3ccc(F)cc3OC(C)C(=O)NCCN(C)C)c2c1C (stereo not shown) [Compound 62, 4-{2-[1-(2-Dimethylamino-ethylcabamoyl)-ethoxy]-4-fluoro-phenylamino}-5-methyl-thieno[2,3-d]pyrimidine-6-carboxylic acid methyl ester] | 6.57

Source: patent US8853193B2, “Thienopyrimidines containing a substituted alkyl group for pharmaceutical compositions” (Boehringer Ingelheim International GmbH, priority 2010, dated 2014)
